Measurements reported in patent publication US20240207302A1, “ANTIVIRAL COMPOUNDS, METHODS FOR THE MANUFACTURING OF COMPOUNDS, ANTIVIRAL PHARMACEUTICAL COMPOSITION, USE OF THE COMPOUNDS AND METHOD FOR THE ORAL TREATMENT OF CORONAVIRUS INFECTION AND RELATED DISEASES THEREOF” (priority 2021, published 2024).
Like-named read-outs stand apart in the source and are kept apart here.

Columns and labels:
SARS-COV-2 [1] = assay: SARS-COV-2 viral RNA synthesis in HuH-7 cells (real time RT-PCR); type: cell-based
SARS-COV-2 [2] = assay: SARS-COV-2 RNA loads in human primary monocytes; type: cell-based; conditions: 24 h
Description: FIG. 5A, 5B and 5C. The compounds impair SARS-COV-2 RNA synthesis and SARS-COV-2-induced release of inflammatory mediators in human primary monocytes.
Human primary monocytes were obtained after 3 h of plastic adherence of peripheral blood mononuclear cells (PBMCs). PBMCs were isolated from healthy donors by density gradient centrifugation (Ficoll-Paque, GE Healthcare). PBMCs (2.0×10^6 cells) were plated onto 48-well plates (NalgeNunc) in RPMI-1640 without serum for 2 to 4 h. Non-adherent cells were removed, and the remaining monocytes were maintained in DMEM with 5% human serum (HS; Millipore) and penicillin/streptomycin. Monocytes were infected at MOI of 0.1. After 1 h inoculation period, cells were washed with phosphate saline buffer (PBS) to remove unbounded viruses and treated with 1 μM of the indicated compounds. After 24 h after infection, cell monolayers werc lysed total viral RNA was extracted, quantitative RT-PCR was performed, to detect the SARS-COV-2 and the housekeeping gene RNAse P.

[3] = Pharmacokinetics of MB-905 in plasma of mice
From the text: FIG. 8A to 8F. […] The number of animals is shown in each figure legends. The vertical lines represent the mean±the standard error deviation.
All animals were maintained under SPF (Specific Pathogen Frec) animal conditions and were obtained from CIEnP facility, whose breeding colonies were purchased from Charles River Laboratories (USA). […] The samples collected from each animal and at each collection time were processed and analyzed individually. For the analysis of plasma and lung, UPLC-MS/MS equipment was used, whose system consists of a Xevo TQS mass spectrometer with a triple-quadrupole mass analyzer, from Waters. The mass spectrometer is coupled to a high-performance liquid chromatograph (Acquity H-Class). The acquisition and treatment of the data were performed with the MassLynx software. […] The calculation of bioavailability was performed using the following equation: F (%)=[(Intravenous dose×oral AUC)/(Oral dose×Intravenous AUC)]×100.

[4] = Pharmacokinetics of MB-905 in plasma of the rat; type: in vivo
Description: The pharmacokinetic assay was performed by using mice of the CDI strain (20-30 g) or rat Sprague Dawley (250-300 g) of both sexes from the Center of Innovation and Preclinical Studies (CIEnP) vivarium. […] After oral […] administration, blood was collected at times of 0.25, 0.5, 1, 2, 4, 8 and 24, while after intravenous administration the collection times were 0.083, 0.25, 0.5, 1, 2 and 4 hours. […] The pharmacokinetic parameters evaluated were: AUC (AUC 0-T or, AUC 0-∞), Cmax, Tmax, T1/2, volume of distribution, clearance, elimination constant and bioavailability.

[5] = system: mouse bone marrow polychromatic erythrocytes; assay: Micronucleus test in mouse bone marrow; type: in vivo; conditions: mice
Description: The ratio of polychromatic to normochromatic erythrocytes and the count of micronuclei were determined. This assay was conducted in compliance with the GLP principles.

[6] = target: human ERG potassium channel (ether-a-gogo-related gene, Kv11.1) (Homo sapiens, UniProt Q12809); assay: hERG FLIPR Potassium assay in HEK293 cells; conditions: up to 300 μM
SARS-COV-2 [7] = system: SARS-COV-2
[8] = both, CD1, mouse, plasma, iv, 3 mg/kg
[9] = both, CD1, mouse, plasma, po, 30 mg/kg
[10] = both sexes, Sprague Dawley, rat, plasma, po, 10 mg/kg, 10 mg/kg (v.o.)
[11] = both sexes, Sprague Dawley, rat, plasma, po, 30 mg/kg, 30 mg/kg (v.o.)
[12] = Severe acute respiratory syndrome coronavirus 2, Calu-3, 72 h, Calu-3 (MOI 0.5 72 h), daily treatment
[13] = Severe acute respiratory syndrome coronavirus 2, Calu-3, 72 h, Calu-3 (MOI 0.5 72 h), single moment treatment
[14] = Severe acute respiratory syndrome coronavirus 2, Calu-3, Table 6, Calu-3, daily treatment
[15] = Severe acute respiratory syndrome coronavirus 2, Calu-3, Table 6, Calu-3, single treatment

Sequence of human ERG potassium channel (ether-a-gogo-related gene, Kv11.1) (Q12809 whole entry): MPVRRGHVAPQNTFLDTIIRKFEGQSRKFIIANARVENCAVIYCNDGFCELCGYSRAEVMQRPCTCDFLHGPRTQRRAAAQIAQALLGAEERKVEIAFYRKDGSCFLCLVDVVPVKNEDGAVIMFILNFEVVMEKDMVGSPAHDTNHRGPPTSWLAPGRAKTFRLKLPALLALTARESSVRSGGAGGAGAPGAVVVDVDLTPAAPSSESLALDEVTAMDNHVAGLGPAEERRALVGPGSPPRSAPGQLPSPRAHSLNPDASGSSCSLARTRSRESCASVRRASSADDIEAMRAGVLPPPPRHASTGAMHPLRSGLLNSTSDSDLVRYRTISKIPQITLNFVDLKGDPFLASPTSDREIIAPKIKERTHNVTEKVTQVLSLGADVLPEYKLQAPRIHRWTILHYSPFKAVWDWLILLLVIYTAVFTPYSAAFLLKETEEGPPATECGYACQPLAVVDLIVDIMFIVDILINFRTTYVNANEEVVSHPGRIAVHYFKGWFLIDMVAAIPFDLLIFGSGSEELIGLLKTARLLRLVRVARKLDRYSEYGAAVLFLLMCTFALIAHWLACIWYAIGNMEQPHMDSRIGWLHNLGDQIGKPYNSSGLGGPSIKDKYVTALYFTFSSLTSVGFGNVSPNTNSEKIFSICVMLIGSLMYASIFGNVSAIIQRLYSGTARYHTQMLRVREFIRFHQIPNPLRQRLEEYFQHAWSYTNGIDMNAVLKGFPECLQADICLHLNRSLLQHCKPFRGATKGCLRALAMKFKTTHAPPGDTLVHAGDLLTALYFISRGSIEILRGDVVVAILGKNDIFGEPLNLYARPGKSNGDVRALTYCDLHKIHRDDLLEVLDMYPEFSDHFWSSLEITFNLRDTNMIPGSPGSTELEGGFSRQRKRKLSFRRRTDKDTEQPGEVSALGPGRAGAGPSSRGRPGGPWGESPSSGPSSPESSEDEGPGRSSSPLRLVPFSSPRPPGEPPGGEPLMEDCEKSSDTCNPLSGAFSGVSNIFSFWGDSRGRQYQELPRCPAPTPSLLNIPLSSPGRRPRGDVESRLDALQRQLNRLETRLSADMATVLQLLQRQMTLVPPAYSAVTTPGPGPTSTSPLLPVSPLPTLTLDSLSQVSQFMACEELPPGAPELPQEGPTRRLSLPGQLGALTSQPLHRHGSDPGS

c1coc(CNc2ncnc3[nH]cnc23)c1 [MB-905, kinetin]
EC50 (SARS-COV-2 [1]; Severe acute respiratory syndrome coronavirus 2, Huh-7 (MOI 0.1 48 h), read-out: EC50): 100 nM | anti-coronavirus activity with simultaneous adenine (SARS-COV-2 [1]; huh-7, adenine at 10 μM): prevented | anti-coronavirus activity (SARS-COV-2 replication) (SARS-COV-2 [1]; huh-7, treatment just after inoculation): concentration dependent inhibition | viral RNA levels/cell (SARS-COV-2 [2]): reduced | Cmax [3, 8]: 135 ng/mL | Vd [3, 8]: 19.4 L/kg | AUC(0-t) [3, 9]: 366 ng·h/mL | Cmax [3, 9]: 570 ng/mL | half-life [3, 9]: 1.1 h | Cmax ([3]; both, CD1, mouse, plasma, po, 550 mg/kg): 1050 ng/mL | AUCall ([3]; mice plasma, 3 mg/kg (i.v.)): 66.41 ng·h/mL | CL ([3]; mice plasma, 3 mg/kg (i.v.)): 918.38 mL/min/kg | Cmax ([3]; mice plasma, 3 mg/kg (i.v.)): 155.16 ng/mL | F ([3]; mice plasma, 3 mg/kg (i.v.)): 100% | Ke ([3]; mice plasma, 3 mg/kg (i.v.)): 3.09 h⁻¹ | T1/2 ([3]; mice plasma, 3 mg/kg (i.v.)): 0.22 h | Tmax ([3]; mice plasma, 3 mg/kg (i.v.)): 4.98 min | Vz ([3]; mice plasma, 3 mg/kg (i.v.)): 19.04 L/kg | AUClast ([3]; mice plasma, 3 mg/kg (i.v.), 3 mg/kg): 55.58 ng·h/mL | CL ([3]; mice plasma, 30 mg/kg (v.o.)): 1060.15 mL/min/kg | Ke ([3]; mice plasma, 30 mg/kg (v.o.)): 0.62 h⁻¹ | Vz ([3]; mice plasma, 30 mg/kg (v.o.)): 102.21 L/kg | F ([3]; mice plasma, 30 mg/kg (v.o.), 30 mg/kg): 53,5% | Ke ([3]; mice plasma, 550 mg/kg (v.o.)): 0.25 h⁻¹ | F ([3]; mice plasma, 550 mg/kg (v.o.), 550 mg/kg): 36.1% | F ([4]; 3 mg/kg (i.v.)): 100% | Cmax ([4]; 3 mg/kg (i.v.), 3 mg/kg): 123.61 ng/mL | Vz ([4]; 3 mg/kg (i.v.), 3 mg/kg): 10.40 L/kg | CL ([4]; 10 mg/kg (v.o.)): 241.09 mL/min/kg | Ke ([4]; 10 mg/kg (v.o.)): 0.47 h⁻¹ | Vz ([4]; 10 mg/kg (v.o.)): 30.37 L/kg | Cmax ([4]; 10 mg/kg (v.o.), 10 mg/kg): 549.96 ng/mL | F ([4]; 10 mg/kg (v.o.), 10 mg/kg): 98.8% | T1/2 ([4]; 10 mg/kg (v.o.), 10 mg/kg): 1.45 h | F ([4]; 30 mg/kg (v.o.)): 64.7% | Ke ([4]; 30 mg/kg (v.o.)): 0.18 h⁻¹ | Vz ([4]; 30 mg/kg (v.o.)): 109.18 L/kg | CL ([4]; 30 mg/kg (v.o.), 30 mg/kg): 330.57 mL/min/kg | Cmax ([4]; both sexes, Sprague Dawley, rat, plasma, iv, 3 mg/kg, 3 mg/kg (i.v.), read-out: Cmax): 99.4 ng/mL | Vd ([4]; both sexes, Sprague Dawley, rat, plasma, iv, 3 mg/kg, 3 mg/kg (i.v.), read-out: Vz): 13.4 L/kg | AUC [4, 10]: 762 ng·h/mL | AUC(0-t) [4, 10]: 666 ng·h/mL | Tmax [4, 10]: 0.25 h | half-life [4, 10]: 1.46 h | Cmax ([4]; both sexes, Sprague Dawley, rat, plasma, po, 10 mg/kg, 10 mg/kg (v.o.), read-out: Cmax): 545 ng/mL | AUC [4, 11]: 1500 ng·h/mL | AUC(0-t) [4, 11]: 1500 ng·h/mL | MNPCE/4,000 PCE (Mean ± S.D.) ([5]; 32 mg/Kg p.o.): 8.50 ± 4.50 | MNPCE/4,000 PCE (Mean ± S.D.) ([5]; 125 mg/Kg p.o.): 8.50 ± 3.81 | MNPCE/4,000 PCE (Mean ± S.D.) ([5]; 500 mg/Kg p.o.): 9.00 ± 2.45 | inhibition of potassium permeation through the hERG channel [6]: about 20% | EC50 (SARS-COV-2 [7]; [12]): 30 nM | EC90 (SARS-COV-2 [7]; [12]): 2100 nM | EC50 (SARS-COV-2 [7]; [13]): 310 nM | EC90 (SARS-COV-2 [7]; [13]): 2800 nM | EC50 (SARS-COV-2 [7]; [14]): 30 nM | EC90 (SARS-COV-2 [7]; [14]): 2100 nM | EC50 (SARS-COV-2 [7]; [15]): 310 nM | EC90 (SARS-COV-2 [7]; [15]): 2800 nM | anti-coronavirus activity with simultaneous adenine (SARS-COV-2 [7]; calu-3, adenine at 10 μM): prevented | anti-coronavirus activity (SARS-COV-2 replication) (SARS-COV-2 [7]; calu-3, treatment just after inoculation): concentration dependent inhibition
